Assay results from article PMC10046369, “Low-Affinity/High-Selectivity Dopamine Transport Inhibition Sufficient to Rescue Cognitive Functions in the Aging Rat” (Biomolecules, 2023).

Tests used:
Assay in all cases: biochemical
Parameters in all cases: KINOMEscan competition binding panel, per cent of control
Settings in all cases: read-out: %Ctrl @ 2800nM
PDPK1 = PDPK1 (Homo sapiens, UniProt O15530)
Outline: (§1)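 Values are expressed as percent of control, calculated as ((test − positive control)/(negative control − positive control)) × 100, so lower numbers mean stronger hits. Binding was measured by KINOMEscan competition assay in a 450-kinase human panel including disease mutants, using the contractor's validated protocol.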

PIK3CA(I800L) = PIK3CA(I800L) (Homo sapiens, UniProt P42336, I800L)
Outline: as §1

MLK1 = biological target: T1, MLK1 (Homo sapiens, UniProt P80192)
T1 construct: gene MAP3K9
Outline: as §1

SLK = SLK (Homo sapiens, UniProt Q9H2G2)
Outline: as §1

PIK3CA = PIK3CA (Homo sapiens, UniProt P42336)
Outline: as §1

MAP3K2 = MAP3K2 (Homo sapiens, UniProt Q9Y2U5)
Outline: as §1

PRKCD = PRKCD (Homo sapiens, UniProt Q05655)
Outline: as §1

EPHB4 = EPHB4 (Homo sapiens, UniProt P54760)
Outline: as §1

PKAC-alpha = biological target: T2, PKAC-alpha (Homo sapiens, UniProt P17612)
T2 construct: gene PRKACA
Outline: as §1

NLK = NLK (Homo sapiens, UniProt Q9UBE8)
Outline: as §1

PIP5K2B = biological target: T3, PIP5K2B (Homo sapiens, UniProt P78356)
T3 construct: gene PIP4K2B
Outline: as §1

TRKA = biological target: T4, TRKA (Homo sapiens, UniProt P04629)
T4 construct: gene NTRK1
Outline: as §1

TNK1 = TNK1 (Homo sapiens, UniProt Q13470)
Outline: as §1

BTK = BTK (Homo sapiens, UniProt Q06187)
Outline: as §1

CDK3 = CDK3 (Homo sapiens, UniProt Q00526)
Outline: as §1

PRP4 = biological target: T5, PRP4 (Homo sapiens, UniProt Q13523)
T5 construct: gene PRPF4B
Outline: as §1

HIPK3 = HIPK3 (Homo sapiens, UniProt Q9H422)
Outline: as §1

FGR = FGR (Homo sapiens, UniProt P09769)
Outline: as §1

KIT(D816H) = KIT(D816H) (Homo sapiens, UniProt P10721, D816H)
Outline: as §1

PCTK3 = biological target: T6, PCTK3 (Homo sapiens, UniProt Q07002)
T6 construct: gene CDK18
Outline: as §1

PRKX = PRKX (Homo sapiens, UniProt P51817)
Outline: as §1

PIP5K1C = PIP5K1C (Homo sapiens, UniProt O60331)
Outline: as §1

[1] = biological target: T7, RPS6KA4(Kin.Dom.1-N-terminal) (Homo sapiens, UniProt O75676)
T7 construct: Kin.Dom.1-N-terminal
Outline: as §1

FLT3 = FLT3 (Homo sapiens, UniProt P36888)
Outline: as §1

KIT(V559D,V654A) = KIT(V559D,V654A) (Homo sapiens, UniProt P10721, V559D/V654A)
Outline: as §1

GRK1 = GRK1 (Homo sapiens, UniProt Q15835)
Outline: as §1

Sequence of KIT(D816H) (P10721 whole entry D816H): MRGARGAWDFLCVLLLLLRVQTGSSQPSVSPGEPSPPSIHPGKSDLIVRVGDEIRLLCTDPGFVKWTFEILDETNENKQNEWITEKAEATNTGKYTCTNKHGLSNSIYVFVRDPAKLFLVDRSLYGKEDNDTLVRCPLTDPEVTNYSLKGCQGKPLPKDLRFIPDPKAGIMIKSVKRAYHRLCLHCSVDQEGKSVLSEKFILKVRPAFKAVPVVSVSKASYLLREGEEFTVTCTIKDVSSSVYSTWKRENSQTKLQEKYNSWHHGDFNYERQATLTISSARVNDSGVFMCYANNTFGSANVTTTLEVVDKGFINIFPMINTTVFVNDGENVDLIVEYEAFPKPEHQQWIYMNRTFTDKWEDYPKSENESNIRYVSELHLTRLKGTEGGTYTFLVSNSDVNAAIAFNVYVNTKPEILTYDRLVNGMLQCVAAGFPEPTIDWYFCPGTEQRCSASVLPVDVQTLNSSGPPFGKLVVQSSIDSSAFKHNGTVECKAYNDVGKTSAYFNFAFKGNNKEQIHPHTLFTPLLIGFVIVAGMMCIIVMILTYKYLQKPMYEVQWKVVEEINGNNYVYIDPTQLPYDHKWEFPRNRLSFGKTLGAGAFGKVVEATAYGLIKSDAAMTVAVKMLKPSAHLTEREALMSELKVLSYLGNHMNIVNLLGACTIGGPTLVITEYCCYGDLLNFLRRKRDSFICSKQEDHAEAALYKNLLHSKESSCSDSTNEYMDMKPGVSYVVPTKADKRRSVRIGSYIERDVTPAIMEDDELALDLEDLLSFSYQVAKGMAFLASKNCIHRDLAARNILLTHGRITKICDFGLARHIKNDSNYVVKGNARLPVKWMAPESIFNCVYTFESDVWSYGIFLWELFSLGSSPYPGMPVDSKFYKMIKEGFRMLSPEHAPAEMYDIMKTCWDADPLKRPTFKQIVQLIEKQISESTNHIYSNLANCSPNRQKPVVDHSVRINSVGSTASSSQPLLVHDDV
T1 sequence (P80192 whole entry): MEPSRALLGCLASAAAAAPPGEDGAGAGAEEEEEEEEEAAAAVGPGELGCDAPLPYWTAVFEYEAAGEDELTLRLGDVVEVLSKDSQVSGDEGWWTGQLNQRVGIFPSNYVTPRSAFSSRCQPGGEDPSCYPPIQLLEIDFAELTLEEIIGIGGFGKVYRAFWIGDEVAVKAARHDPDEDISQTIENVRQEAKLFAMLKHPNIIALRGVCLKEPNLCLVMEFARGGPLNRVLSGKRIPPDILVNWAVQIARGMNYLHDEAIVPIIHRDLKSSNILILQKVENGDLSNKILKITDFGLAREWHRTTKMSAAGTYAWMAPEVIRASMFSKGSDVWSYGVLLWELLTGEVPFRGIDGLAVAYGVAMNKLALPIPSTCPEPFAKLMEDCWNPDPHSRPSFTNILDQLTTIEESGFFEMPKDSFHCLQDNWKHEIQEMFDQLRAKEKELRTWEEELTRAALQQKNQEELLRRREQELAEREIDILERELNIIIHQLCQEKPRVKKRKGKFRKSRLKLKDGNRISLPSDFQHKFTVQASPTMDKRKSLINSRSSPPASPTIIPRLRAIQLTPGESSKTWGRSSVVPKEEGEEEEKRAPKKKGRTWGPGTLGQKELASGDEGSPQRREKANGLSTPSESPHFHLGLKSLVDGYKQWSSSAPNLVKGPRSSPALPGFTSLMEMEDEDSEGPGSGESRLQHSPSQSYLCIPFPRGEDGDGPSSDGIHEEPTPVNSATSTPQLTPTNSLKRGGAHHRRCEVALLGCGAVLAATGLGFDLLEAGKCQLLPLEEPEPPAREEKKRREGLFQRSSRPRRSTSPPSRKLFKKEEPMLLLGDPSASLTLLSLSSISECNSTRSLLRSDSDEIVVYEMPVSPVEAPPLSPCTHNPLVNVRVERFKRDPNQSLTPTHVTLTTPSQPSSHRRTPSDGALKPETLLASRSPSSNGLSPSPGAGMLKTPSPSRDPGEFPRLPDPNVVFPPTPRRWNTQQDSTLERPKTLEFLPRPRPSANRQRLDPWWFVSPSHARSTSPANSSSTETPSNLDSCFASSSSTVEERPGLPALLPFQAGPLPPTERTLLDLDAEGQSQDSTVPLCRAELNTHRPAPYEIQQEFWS
Sequence of PIP5K1C (O60331 whole entry): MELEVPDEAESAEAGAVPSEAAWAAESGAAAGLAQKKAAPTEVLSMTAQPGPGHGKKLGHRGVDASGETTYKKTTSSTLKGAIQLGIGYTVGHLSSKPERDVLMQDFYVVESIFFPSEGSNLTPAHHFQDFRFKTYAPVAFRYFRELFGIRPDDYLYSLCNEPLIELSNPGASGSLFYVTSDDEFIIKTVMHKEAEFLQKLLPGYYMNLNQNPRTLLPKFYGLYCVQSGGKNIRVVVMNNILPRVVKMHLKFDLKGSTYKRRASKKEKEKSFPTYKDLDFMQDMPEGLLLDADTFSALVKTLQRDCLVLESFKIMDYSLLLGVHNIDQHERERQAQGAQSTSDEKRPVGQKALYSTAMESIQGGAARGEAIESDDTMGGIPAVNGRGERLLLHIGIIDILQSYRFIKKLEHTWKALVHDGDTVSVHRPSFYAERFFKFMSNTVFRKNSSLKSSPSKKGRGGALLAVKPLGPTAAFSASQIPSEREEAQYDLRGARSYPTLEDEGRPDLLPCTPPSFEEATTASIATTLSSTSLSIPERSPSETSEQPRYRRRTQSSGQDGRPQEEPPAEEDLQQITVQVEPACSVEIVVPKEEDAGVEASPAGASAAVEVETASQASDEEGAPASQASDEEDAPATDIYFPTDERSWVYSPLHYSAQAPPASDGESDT
Sequence of PRKX (P51817 whole entry): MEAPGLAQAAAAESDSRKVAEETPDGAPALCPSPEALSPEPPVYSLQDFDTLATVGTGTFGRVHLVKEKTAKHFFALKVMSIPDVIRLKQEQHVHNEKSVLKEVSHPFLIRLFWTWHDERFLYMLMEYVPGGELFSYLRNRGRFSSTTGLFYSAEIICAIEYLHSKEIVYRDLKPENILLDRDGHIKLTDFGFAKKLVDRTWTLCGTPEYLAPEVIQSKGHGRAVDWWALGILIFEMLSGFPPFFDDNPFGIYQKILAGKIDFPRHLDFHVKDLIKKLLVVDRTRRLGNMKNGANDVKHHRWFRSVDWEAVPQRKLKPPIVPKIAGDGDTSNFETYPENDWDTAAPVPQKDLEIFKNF
Sequence of MAP3K2 (Q9Y2U5 whole entry): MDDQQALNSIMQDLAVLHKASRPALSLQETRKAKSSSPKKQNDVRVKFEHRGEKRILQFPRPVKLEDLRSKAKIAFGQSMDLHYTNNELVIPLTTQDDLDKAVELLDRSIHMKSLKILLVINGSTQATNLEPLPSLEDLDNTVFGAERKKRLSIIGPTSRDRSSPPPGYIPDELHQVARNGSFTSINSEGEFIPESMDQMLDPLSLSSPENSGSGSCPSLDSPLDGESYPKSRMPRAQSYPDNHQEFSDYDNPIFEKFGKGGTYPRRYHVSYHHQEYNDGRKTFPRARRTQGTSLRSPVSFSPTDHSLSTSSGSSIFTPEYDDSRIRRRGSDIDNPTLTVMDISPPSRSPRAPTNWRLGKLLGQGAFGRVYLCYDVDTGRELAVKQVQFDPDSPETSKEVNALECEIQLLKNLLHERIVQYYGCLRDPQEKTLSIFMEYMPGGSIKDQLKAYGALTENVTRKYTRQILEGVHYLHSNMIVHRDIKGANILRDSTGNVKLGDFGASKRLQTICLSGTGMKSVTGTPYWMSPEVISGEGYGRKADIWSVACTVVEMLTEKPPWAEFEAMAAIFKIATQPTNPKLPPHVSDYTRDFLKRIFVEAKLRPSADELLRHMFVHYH
T7 sequence (O75676 whole entry): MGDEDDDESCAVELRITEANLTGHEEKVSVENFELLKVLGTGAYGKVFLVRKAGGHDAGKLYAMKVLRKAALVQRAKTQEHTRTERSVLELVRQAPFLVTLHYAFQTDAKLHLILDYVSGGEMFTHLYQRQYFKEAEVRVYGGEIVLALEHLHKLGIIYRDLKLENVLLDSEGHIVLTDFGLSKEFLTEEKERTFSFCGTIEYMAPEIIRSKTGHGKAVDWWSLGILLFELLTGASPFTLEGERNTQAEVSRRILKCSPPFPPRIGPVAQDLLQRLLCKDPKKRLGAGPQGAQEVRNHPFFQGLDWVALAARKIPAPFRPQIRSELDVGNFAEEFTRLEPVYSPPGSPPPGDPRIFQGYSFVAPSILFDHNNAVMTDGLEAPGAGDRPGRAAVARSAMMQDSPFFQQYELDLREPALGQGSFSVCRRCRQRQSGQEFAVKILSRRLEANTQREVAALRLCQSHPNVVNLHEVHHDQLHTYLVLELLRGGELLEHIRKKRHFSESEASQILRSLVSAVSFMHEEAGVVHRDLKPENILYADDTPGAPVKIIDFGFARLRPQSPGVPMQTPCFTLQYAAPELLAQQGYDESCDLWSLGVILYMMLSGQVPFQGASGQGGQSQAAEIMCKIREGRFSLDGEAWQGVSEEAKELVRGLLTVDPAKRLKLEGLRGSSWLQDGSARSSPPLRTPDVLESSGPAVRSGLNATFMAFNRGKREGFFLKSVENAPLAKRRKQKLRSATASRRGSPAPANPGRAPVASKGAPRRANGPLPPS
Sequence of GRK1 (Q15835 whole entry): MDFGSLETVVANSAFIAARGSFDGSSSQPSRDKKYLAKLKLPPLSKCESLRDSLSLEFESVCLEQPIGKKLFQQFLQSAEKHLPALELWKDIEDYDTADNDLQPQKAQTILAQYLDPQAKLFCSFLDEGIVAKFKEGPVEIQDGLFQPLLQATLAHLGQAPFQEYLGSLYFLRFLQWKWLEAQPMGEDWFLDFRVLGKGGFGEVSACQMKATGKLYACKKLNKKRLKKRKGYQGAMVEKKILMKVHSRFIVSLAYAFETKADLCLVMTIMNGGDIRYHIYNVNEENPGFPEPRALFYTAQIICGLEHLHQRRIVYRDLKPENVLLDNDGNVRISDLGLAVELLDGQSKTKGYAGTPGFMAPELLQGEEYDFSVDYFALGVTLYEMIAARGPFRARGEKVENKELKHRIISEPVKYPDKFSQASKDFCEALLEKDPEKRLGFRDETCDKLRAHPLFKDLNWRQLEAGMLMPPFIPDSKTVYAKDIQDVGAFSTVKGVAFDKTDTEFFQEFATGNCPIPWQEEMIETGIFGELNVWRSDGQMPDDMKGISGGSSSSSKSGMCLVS

## [O-][S@@+](Cc1cncs1)C(c1ccccc1)c1ccccc1 [S-CE-123, (S)-5-((Benzhydrylsulfinyl)Methyl)Thiazole]
PDPK1
  remaining binding at 2.8 µM: 95%
PIK3CA(I800L)
  remaining binding at 2.8 µM: 84%
MLK1
  remaining binding at 2.8 µM: 100%
SLK
  remaining binding at 2.8 µM: 100%
PIK3CA
  remaining binding at 2.8 µM: 80%
MAP3K2
  remaining binding at 2.8 µM: 100%
PRKCD
  remaining binding at 2.8 µM: 89%
EPHB4
  remaining binding at 2.8 µM: 95%
PKAC-alpha
  remaining binding at 2.8 µM: 95%
NLK
  remaining binding at 2.8 µM: 97%
PIP5K2B
  remaining binding at 2.8 µM: 100%
TRKA
  remaining binding at 2.8 µM: 100%
TNK1
  remaining binding at 2.8 µM: 74%
BTK
  remaining binding at 2.8 µM: 100%
CDK3
  remaining binding at 2.8 µM: 100%
PRP4
  remaining binding at 2.8 µM: 92%
HIPK3
  remaining binding at 2.8 µM: 91%
FGR
  remaining binding at 2.8 µM: 100%
KIT(D816H)
  remaining binding at 2.8 µM: 100%
PCTK3
  remaining binding at 2.8 µM: 99%
PRKX
  remaining binding at 2.8 µM: 100%
PIP5K1C
  remaining binding at 2.8 µM: 100%
[1]
  remaining binding at 2.8 µM: 100%
FLT3
  remaining binding at 2.8 µM: 96%
KIT(V559D,V654A)
  remaining binding at 2.8 µM: 100%
GRK1
  remaining binding at 2.8 µM: 100%
